A short description of this data set: recombinant UMI read abundance after kanamycin selection (control-corrected) (log10(CPM+1)); higher = more efficient recombination; extreme values may be limits of the assay; sequences stand for … in AGTGCAGAGAAAATCGGCCAGTTTTCTCTGCCTGCAGTCCGCATGCCGTGGGACCCCTTGGGTTCTAACCTGTTGCCTAGATTTATGCAGCGGACTGCCTTTCTCCCAAAGTGATAAACCGG…AGGTTGGTTTCACT; site = the 11-nt donor. The protocol:
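Pooled E. coli donor-specificity screen for the IS621 bridge recombinase. Each library member carries a reprogrammed 11-nt donor and a full-length LE bridge RNA expressed in cis from the natural promoter, with a paired donor-binding loop (8-nt LDG + 4-nt RDG) and a target-binding loop fixed to T5. It is co-electroporated with a T5 target plasmid; recombinase is induced with 0.07 mM IPTG and recombinants are selected on kanamycin. UMIs are counted as CPM, averaged over two biological replicates and corrected by the unselected control. Molecule = full bridge RNA written as DNA, built from the T5 scaffold: LDG = donor specificity nt 1-8, RDG = reverse complement of nt 8-11.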
For the sequence “ACTAGAACATGGACCGGTTTTCCCGGTAATCCGTATTTGAG (site ACTAGAACTCA)”, the “recombinant UMI read abundance (log10)” value came out at 0.00396. As for “ACTAGAACATGGACCGGTTTTCCCGGTAATCCGTATTTGAG (site ACTAGAACTCC)”, the figure is 0.0223. On to “ACTAGAACATGGACCGGTTTTCCCGGTAATCCGTATTTGAG (site ACTAGAACTCG)”, for which the “recombinant UMI read abundance (log10)” value came to 0. As to “ACTAGAACATGGACCGGTTTTCCCGGTAATCCGTATTTGAG (site ACTAGAACTCT)”, the “recombinant UMI read abundance (log10)” value was determined as 1.72. The same measure for “ACTAGAACATGGACCGGTTTTCCCGGTAATCCGTATTTGAG (site ACTAGAACTGT)”: 0; for “ACTAGAACATGGACCGGTTTTCCCGGTAATCCGTATTTGAG (site ACTAGAACTTT)”: 0.286; for “ACTAGAACATGGACCGGTTTTCCCGGTAATCCGTATTTGAG (site ACTAGACCTCT)”: 0.00567. The same measure for “ACTAGAACATGGACCGGTTTTCCCGGTAATCCGTATTTGAG (site ACTAGAGCTCT)”: 0.324; for “ACTAGAACATGGACCGGTTTTCCCGGTAATCCGTATTTGAG (site ACTAGATCTCT)”: 1.72.

Regarding “ACTAGAACATGGACCGGTTTTCCCGGTAATCCGTATTTGAG (site ACTAGCACTCT)”, the “recombinant UMI read abundance (log10)” value amounted to 0.0125. As to “ACTAGAACATGGACCGGTTTTCCCGGTAATCCGTATTTGAG (site ACTAGGACTCT)”, the “recombinant UMI read abundance (log10)” value was found to be 0.407.

With “ACTAGAACATGGACCGGTTTTCCCGGTAATCCGTATTTGAG (site ACTAGTACTCT)”, the “recombinant UMI read abundance (log10)” value amounted to 0.0383. The same measure for “ACTAGAACATGGACCGGTTTTCCCGGTAATCCGTATTTGAG (site ACTATAACTCT)”: 1.22. Regarding “ACTAGAACATGGACCGGTTTTCCCGGTAATCCGTATTTGAG (site ACTCGAACTCT)”, the “recombinant UMI read abundance (log10)” value is 0.115. With “ACTAGAACATGGACCGGTTTTCCCGGTAATCCGTATTTGAG (site ACTGGAACTCT)”, the “recombinant UMI read abundance (log10)” value was determined as 0.3. As for “ACTAGAACATGGACCGGTTTTCCCGGTAATCCGTATTTGAG (site ACTTGAACTCT)”, the figure is 0.118. For the sequence “ACTAGAACATGGACCGGTTTTCCCGGTAATCCGTATTTGAG (site AGTAGAACTCT)”, the “recombinant UMI read abundance (log10)” value worked out at 0.227.

As to “ACTAGAACATGGACCGGTTTTCCCGGTAATCCGTATTTGAG (site ATTAGAACTCT)”, the “recombinant UMI read abundance (log10)” value was found to be 1.34. Take “ACTAGAACATGGACCGGTTTTCCCGGTAATCCGTATTTGAG (site CCTAGAACTCT)”: the “recombinant UMI read abundance (log10)” value stood at 1.33.

Consider “ACTAGAACATGGACCGGTTTTCCCGGTAATCCGTATTTGAG (site GCTAGAACTCT)”, for which the “recombinant UMI read abundance (log10)” value was found to be 0.34.

“ACTAGAACATGGACCGGTTTTCCCGGTAATCCGTATTTGAG (site TCTAGAACTCT)”: the “recombinant UMI read abundance (log10)” value was 0.854. On to “ACTAGAACATGGACCGGTTTTCCCGGTAATCCGTATTTGCG (site ACTAGAACTCA)”, for which the “recombinant UMI read abundance (log10)” value was 0.0146. Take “ACTAGAACATGGACCGGTTTTCCCGGTAATCCGTATTTGCG (site ACTAGAACTCC)”: the “recombinant UMI read abundance (log10)” value worked out at 0.0147.

“ACTAGAACATGGACCGGTTTTCCCGGTAATCCGTATTTGCG (site ACTAGAACTCG)”: the “recombinant UMI read abundance (log10)” value turned out to be 2.19. Consider “ACTAGAACATGGACCGGTTTTCCCGGTAATCCGTATTTGCG (site ACTAGAACTCT)”, for which the “recombinant UMI read abundance (log10)” value amounted to 0.412. In the case of “ACTAGACCATGGACCGGTTTTCCCGGTAATCCGTATTTGGA (site ACTAGACCTTC)”, the “recombinant UMI read abundance (log10)” value is 0.014. As for “ACTAGAGCATGGACCGGTTTTCCCGGTAATCCGTATTTGAG (site ACTAGAACTCT)”, the figure is 1.52; as for “ACTAGAGCATGGACCGGTTTTCCCGGTAATCCGTATTTGAG (site ACTAGACCTCT)”, 0; as for “ACTAGAGCATGGACCGGTTTTCCCGGTAATCCGTATTTGAG (site ACTAGAGCTCT)”, 2.15. The same measure for “ACTAGAGCATGGACCGGTTTTCCCGGTAATCCGTATTTGAG (site ACTAGATCTCT)”: 1.65; for “ACTAGAGCATGGACCGGTTTTCCCGGTAATCCGTATTTGCA (site ACTAGAGCTTG)”: 2.15; for “ACTAGCGCATGGACCGGTTTTCCCGGTAATCCGTATTTGGT (site ACTAGAGCTAC)”: 0.428. The same measure for “ACTAGCGCATGGACCGGTTTTCCCGGTAATCCGTATTTGGT (site ACTAGCGCTAC)”: 1.86. As to “ACTAGCGCATGGACCGGTTTTCCCGGTAATCCGTATTTGGT (site ACTAGGGCTAC)”, the “recombinant UMI read abundance (log10)” value amounted to 0.00433. The same measure for “ACTAGCGCATGGACCGGTTTTCCCGGTAATCCGTATTTGGT (site ACTAGTGCTAC)”: 0.00815; for “ACTAGGACATGGACCGGTTTTCCCGGTAATCCGTATTTGAG (site ACTAGAACTCT)”: 2.04; for “ACTAGGACATGGACCGGTTTTCCCGGTAATCCGTATTTGAG (site ACTAGCACTCT)”: 0.00393. With “ACTAGGACATGGACCGGTTTTCCCGGTAATCCGTATTTGAG (site ACTAGGACTCT)”, the “recombinant UMI read abundance (log10)” value was 2.15. In the case of “ACTAGGACATGGACCGGTTTTCCCGGTAATCCGTATTTGAG (site ACTAGTACTCT)”, the “recombinant UMI read abundance (log10)” value was 0.226. The same measure for “ACTAGGGCATGGACCGGTTTTCCCGGTAATCCGTATTTGGT (site ACTAGAGCTAC)”: 1.2; for “ACTAGGGCATGGACCGGTTTTCCCGGTAATCCGTATTTGGT (site ACTAGCGCTAC)”: 0.00536. As for “ACTAGGGCATGGACCGGTTTTCCCGGTAATCCGTATTTGGT (site ACTAGGGCTAC)”, the figure is 1.2; as for “ACTAGGGCATGGACCGGTTTTCCCGGTAATCCGTATTTGGT (site ACTAGTGCTAC)”, 0.0165; as for “ACTAGTACATGGACCGGTTTTCCCGGTAATCCGTATTTGGT (site ACTAGTACTAC)”, 1.19. As to “ACTAGTACATGGACCGGTTTTCCCGGTAATCCGTATTTGGT (site ACTAGTCCTAC)”, the “recombinant UMI read abundance (log10)” value was determined as 0.00589. On to “ACTAGTACATGGACCGGTTTTCCCGGTAATCCGTATTTGGT (site ACTAGTGCTAC)”, for which the “recombinant UMI read abundance (log10)” value was determined as 0.181.

Regarding “ACTAGTACATGGACCGGTTTTCCCGGTAATCCGTATTTGGT (site ACTAGTTCTAC)”, the “recombinant UMI read abundance (log10)” value worked out at 0. As for “ACTAGTGCATGGACCGGTTTTCCCGGTAATCCGTATTTGCC (site ACTAGTGCTGG)”, the figure is 1.93; as for “ACTAGTTCATGGACCGGTTTTCCCGGTAATCCGTATTTGAA (site ACTAGTTCTTT)”, 1.03. As to “ACTATGCCATGGACCGGTTTTCCCGGTAATCCGTATTTGTC (site ACTATGCCTGA)”, the “recombinant UMI read abundance (log10)” value stood at 0.

In the case of “ACTCATCCATGGACCGGTTTTCCCGGTAATCCGTATTTGAC (site ACACATCCTGT)”, the “recombinant UMI read abundance (log10)” value worked out at 0. Turning to “ACTCATCCATGGACCGGTTTTCCCGGTAATCCGTATTTGAC (site ACCCATCCTGT)”, the “recombinant UMI read abundance (log10)” value is 0.872. For “ACTCATCCATGGACCGGTTTTCCCGGTAATCCGTATTTGAC (site ACGCATCCTGT)”, the “recombinant UMI read abundance (log10)” value came to 0.525. As for “ACTCATCCATGGACCGGTTTTCCCGGTAATCCGTATTTGAC (site ACTCATCCTGT)”, the figure is 0.798; as for “ACTCCAACATGGACCGGTTTTCCCGGTAATCCGTATTTGCT (site ACTCCAACTAG)”, 1.66; as for “ACTCCACCATGGACCGGTTTTCCCGGTAATCCGTATTTGTG (site ACTCCACCTCA)”, 0.0232.

Take “ACTCCGACATGGACCGGTTTTCCCGGTAATCCGTATTTGGC (site ACTCCGACTGC)”: the “recombinant UMI read abundance (log10)” value was 1.98. The same measure for “ACTCGAACATGGACCGGTTTTCCCGGTAATCCGTATTTGTC (site ACACGAACTGA)”: 0; for “ACTCGAACATGGACCGGTTTTCCCGGTAATCCGTATTTGTC (site ACCCGAACTGA)”: 1.84. The same measure for “ACTCGAACATGGACCGGTTTTCCCGGTAATCCGTATTTGTC (site ACGCGAACTGA)”: 1.26; for “ACTCGAACATGGACCGGTTTTCCCGGTAATCCGTATTTGTC (site ACTCGAACTGA)”: 2; for “ACTCGCTCATGGACCGGTTTTCCCGGTAATCCGTATTTGGT (site ACTCGCTCTAC)”: 2.03. As to “ACTCTACCATGGACCGGTTTTCCCGGTAATCCGTATTTGCT (site ACTCTACCTAG)”, the “recombinant UMI read abundance (log10)” value came to 0.

For the sequence “ACTGACACATGGACCGGTTTTCCCGGTAATCCGTATTTGAC (site ACTGACACTGT)”, the “recombinant UMI read abundance (log10)” value is 2.83.

With “ACTTATGCATGGACCGGTTTTCCCGGTAATCCGTATTTGCT (site ACTTATGCTAG)”, the “recombinant UMI read abundance (log10)” value was found to be 0.0248.

The values are drawn from the supplement of paper PMC11208160.
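Further: IS621 bridge recombinase in Escherichia coli cells against a fixed T5 target plasmid.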
